Data: PubChem BioAssay (NCI)
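Five concentrations, 48 hours, 96-well plates. GI50 = concentration required for 50% inhibition of growth. TGI is the concentration that stops growth completely.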

tested on: KM20L2 colon; assay: NCI-60 cell line screen, 48 h

Row | Compound | TGI [µM]
1 | O=C1NC2OC(C(O)CO)C(O)C2O1 (configuration not stated) | > 100
2 | C/C(CC(=O)NCCc1ccccc1)=N\NC(=O)C[n+]1ccccc1 | > 100

tested on: LOX IMVI melanoma; assay: NCI-60 cell line screen, 48 h

Row | Compound | TGI [µM] | GI50 [µM]
3 | O=c1c2cc(Br)cc(Br)c2nc(CCCl)n1CCO | > 100 | –
4 | CC(=O)[C@@]1(O)CC[C@H]2[C@@H]3C[C@H](C)C4=CC(=O)C=C[C@]4(C)[C@@]3(F)[C@@H](O)C[C@@]21C | > 100 | –
5 | Nc1ccn(C2CCC(CO)O2)c(=O)n1 (configuration not stated) | > 1000 | > 1000
6 | O=C1CCCC[C@H]1[C@H]1CCC[C@@H]([C@H]2CCCCC2=O)C1=O | > 100 | –
7 | O=C1NC2OC(C(O)CO)C(O)C2O1 (configuration not stated) | > 100 | –
8 | C/C(CC(=O)NCCc1ccccc1)=N\NC(=O)C[n+]1ccccc1 | > 100 | –

tested on: LXFL 529 NSCLC; assay: NCI-60 cell line screen, 48 h

Row | Compound | TGI [µM]
9 | O=c1c2cc(Br)cc(Br)c2nc(CCCl)n1CCO | > 100
10 | CC(=O)[C@@]1(O)CC[C@H]2[C@@H]3C[C@H](C)C4=CC(=O)C=C[C@]4(C)[C@@]3(F)[C@@H](O)C[C@@]21C | > 100
11 | O=C1CCCC[C@H]1[C@H]1CCC[C@@H]([C@H]2CCCCC2=O)C1=O | > 100
12 | O=C1NC2OC(C(O)CO)C(O)C2O1 (configuration not stated) | > 100
13 | C/C(CC(=O)NCCc1ccccc1)=N\NC(=O)C[n+]1ccccc1 | > 100

tested on: M14 melanoma; assay: NCI-60 cell line screen, 48 h

Row | Compound | TGI [µM]
14 | O=c1c2cc(Br)cc(Br)c2nc(CCCl)n1CCO | > 100
15 | CC(=O)[C@@]1(O)CC[C@H]2[C@@H]3C[C@H](C)C4=CC(=O)C=C[C@]4(C)[C@@]3(F)[C@@H](O)C[C@@]21C | > 100
16 | Nc1ccn(C2CCC(CO)O2)c(=O)n1 (configuration not stated) | > 1000
17 | O=C1CCCC[C@H]1[C@H]1CCC[C@@H]([C@H]2CCCCC2=O)C1=O | > 100
18 | O=C1NC2OC(C(O)CO)C(O)C2O1 (configuration not stated) | > 100
19 | C/C(CC(=O)NCCc1ccccc1)=N\NC(=O)C[n+]1ccccc1 | > 100

tested on: M19-MEL melanoma; assay: NCI-60 cell line screen, 48 h

Row | Compound | TGI [µM]
20 | O=c1c2cc(Br)cc(Br)c2nc(CCCl)n1CCO | > 100
21 | CC(=O)[C@@]1(O)CC[C@H]2[C@@H]3C[C@H](C)C4=CC(=O)C=C[C@]4(C)[C@@]3(F)[C@@H](O)C[C@@]21C | > 100
22 | O=C1CCCC[C@H]1[C@H]1CCC[C@@H]([C@H]2CCCCC2=O)C1=O | > 100
23 | O=C1NC2OC(C(O)CO)C(O)C2O1 (configuration not stated) | > 100
24 | C/C(CC(=O)NCCc1ccccc1)=N\NC(=O)C[n+]1ccccc1 | > 100

tested on: MALME-3M melanoma; assay: NCI-60 cell line screen, 48 h

Row | Compound | TGI [µM] | GI50 [µM]
25 | O=c1c2cc(Br)cc(Br)c2nc(CCCl)n1CCO | > 100 | –
26 | CC(=O)[C@@]1(O)CC[C@H]2[C@@H]3C[C@H](C)C4=CC(=O)C=C[C@]4(C)[C@@]3(F)[C@@H](O)C[C@@]21C | > 100 | –
27 | Nc1ccn(C2CCC(CO)O2)c(=O)n1 (configuration not stated) | > 1000 | > 1000
28 | O=C1CCCC[C@H]1[C@H]1CCC[C@@H]([C@H]2CCCCC2=O)C1=O | > 100 | –
29 | O=C1NC2OC(C(O)CO)C(O)C2O1 (configuration not stated) | > 100 | –
30 | C/C(CC(=O)NCCc1ccccc1)=N\NC(=O)C[n+]1ccccc1 | > 100 | –

tested on: MCF7 breast; assay: NCI-60 cell line screen, 48 h

Row | Compound | TGI [µM] | GI50 [µM]
31 | CC(=O)[C@@]1(O)CC[C@H]2[C@@H]3C[C@H](C)C4=CC(=O)C=C[C@]4(C)[C@@]3(F)[C@@H](O)C[C@@]21C | > 100 | –
32 | Nc1ccn(C2CCC(CO)O2)c(=O)n1 (configuration not stated) | > 1000 | > 1000

tested on: MDA-MB-231 breast; assay: NCI-60 cell line screen, 48 h

Row | Compound | TGI [µM]
33 | CC(=O)[C@@]1(O)CC[C@H]2[C@@H]3C[C@H](C)C4=CC(=O)C=C[C@]4(C)[C@@]3(F)[C@@H](O)C[C@@]21C | > 100
34 | Nc1ccn(C2CCC(CO)O2)c(=O)n1 (configuration not stated) | > 1000

tested on: MDA-MB-435; assay: NCI-60 cell line screen, 48 h

Row | Compound | TGI [µM]
35 | CC(=O)[C@@]1(O)CC[C@H]2[C@@H]3C[C@H](C)C4=CC(=O)C=C[C@]4(C)[C@@]3(F)[C@@H](O)C[C@@]21C | > 100
36 | Nc1ccn(C2CCC(CO)O2)c(=O)n1 (configuration not stated) | > 1000

tested on: MDA-N; assay: NCI-60 cell line screen, 48 h

Row | Compound | TGI [µM]
37 | CC(=O)[C@@]1(O)CC[C@H]2[C@@H]3C[C@H](C)C4=CC(=O)C=C[C@]4(C)[C@@]3(F)[C@@H](O)C[C@@]21C | > 100
38 | Nc1ccn(C2CCC(CO)O2)c(=O)n1 (configuration not stated) | > 1000

tested on: MOLT-4 leukemia; assay: NCI-60 cell line screen, 48 h

Row | Compound | TGI [µM] | GI50 [µM]
39 | O=c1c2cc(Br)cc(Br)c2nc(CCCl)n1CCO | > 100 | –
40 | CC(=O)[C@@]1(O)CC[C@H]2[C@@H]3C[C@H](C)C4=CC(=O)C=C[C@]4(C)[C@@]3(F)[C@@H](O)C[C@@]21C | > 100 | –
41 | Nc1ccn(C2CCC(CO)O2)c(=O)n1 (configuration not stated) | > 1000 | 87.5
42 | O=C1CCCC[C@H]1[C@H]1CCC[C@@H]([C@H]2CCCCC2=O)C1=O | > 100 | –
43 | O=C1NC2OC(C(O)CO)C(O)C2O1 (configuration not stated) | > 100 | –
